In BindingDB's records for doi:10.7270/Q26112HR (n/a, 1997):

Target: D(3) dopamine receptor (Homo sapiens, UniProt P35462)
Test: Ability to displace [125I]-sulpiride from human Dopamine receptor D3, expressed in CHO cells

D(3) dopamine receptor, sequence (P35462 as listed by the source): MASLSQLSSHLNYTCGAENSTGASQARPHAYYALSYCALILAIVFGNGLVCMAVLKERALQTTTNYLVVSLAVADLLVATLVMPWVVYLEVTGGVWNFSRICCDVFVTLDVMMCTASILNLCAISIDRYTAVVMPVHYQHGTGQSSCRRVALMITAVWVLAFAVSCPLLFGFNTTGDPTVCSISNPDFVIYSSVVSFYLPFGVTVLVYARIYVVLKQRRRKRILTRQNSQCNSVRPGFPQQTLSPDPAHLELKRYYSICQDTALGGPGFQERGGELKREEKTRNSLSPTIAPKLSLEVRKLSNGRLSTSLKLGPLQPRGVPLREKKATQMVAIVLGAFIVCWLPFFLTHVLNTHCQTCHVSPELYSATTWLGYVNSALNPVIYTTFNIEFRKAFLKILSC

Ki: 1.3 nM
Structure (SMILES): CCS(=O)(=O)c1ccc(OC)c(-c2ccc(CN3CCCCCC3c3ccccc3)[nH]2)c1 (stereo unspecified)
